Test: (§1) The drug is tested on WLS-370 corresponding to human gut metagenome with ENA study accession number: PRJEB37062 and ENA sample accession number: ERS12561793 for biotransformation under anaerobic condition. The drug concentrations were measured over 9 timepoints collected between 0 and 24 hours of incubation by liquid-chromatography-coupled mass spectrometry (LC–MS)
Details: 2 µM
Note: call rule not given here.

| SMILES | Bacterial Biotransformation |
| --- | --- |
| O=c1n(CCCN2CCN(c3cccc(Cl)c3)CC2)nc2ccccn12 [TRAZODONE] | Compound metabolized |
| CN1CCN(C2=Nc3cc(Cl)ccc3Nc3ccccc32)CC1 [CLOZAPINE] | Compound metabolized |
| O=C(O)CCc1nc(-c2ccccc2)c(-c2ccccc2)o1 [OXAPROZIN] | Compound metabolized |
| CN1C(=O)CCS(=O)(=O)C1c1ccc(Cl)cc1 (stereo not drawn) [CHLORMEZANONE] | Compound NOT metabolized |

More lines, now with the values ahead:

| Bacterial Biotransformation | SMILES |
| --- | --- |
| Compound NOT metabolized | Cc1ccc(/C(=C\CN2CCCC2)c2ccccn2)cc1 [TRIPROLIDINE] |
| Compound metabolized | CCOC(=O)[C@H](CCc1ccccc1)N[C@@H](C)C(=O)N1[C@H](C(=O)O)C[C@@H]2CCC[C@@H]21 |
| Compound NOT metabolized | CN1C(=O)CC(C)(c2ccccc2)C1=O (stereo not drawn) [METHSUXIMIDE] |

Test: as §1, with “Z-021” for “WLS-370”, “to” for “to human gut”, “ERS12561820” for “ERS12561793”
Details: 2 µM

| SMILES | Bacterial Biotransformation |
| --- | --- |
| O=c1n(CCCN2CCN(c3cccc(Cl)c3)CC2)nc2ccccn12 [TRAZODONE] | Compound NOT metabolized |
| CN1CCN(C2=Nc3cc(Cl)ccc3Nc3ccccc32)CC1 [CLOZAPINE] | Compound NOT metabolized |
| O=C(O)CCc1nc(-c2ccccc2)c(-c2ccccc2)o1 [OXAPROZIN] | Compound metabolized |
| CN1C(=O)CCS(=O)(=O)C1c1ccc(Cl)cc1 (stereo not drawn) [CHLORMEZANONE] | Compound NOT metabolized |

Next, values leading:

| Bacterial Biotransformation | SMILES |
| --- | --- |
| Compound NOT metabolized | Cc1ccc(/C(=C\CN2CCCC2)c2ccccn2)cc1 [TRIPROLIDINE] |
| Compound metabolized | CCOC(=O)[C@H](CCc1ccccc1)N[C@@H](C)C(=O)N1[C@H](C(=O)O)C[C@@H]2CCC[C@@H]21 |
| Compound metabolized | CN1C(=O)CC(C)(c2ccccc2)C1=O (stereo not drawn) [METHSUXIMIDE] |

Details: human gut metagenome, 24 h, 2 µM

| SMILES | Bacterial Biotransformation |
| --- | --- |
| O=c1n(CCCN2CCN(c3cccc(Cl)c3)CC2)nc2ccccn12 [TRAZODONE] | Compound NOT metabolized |
| CN1CCN(C2=Nc3cc(Cl)ccc3Nc3ccccc32)CC1 [CLOZAPINE] | Compound NOT metabolized |
| O=C(O)CCc1nc(-c2ccccc2)c(-c2ccccc2)o1 [OXAPROZIN] | Compound metabolized |
| CN1C(=O)CCS(=O)(=O)C1c1ccc(Cl)cc1 (stereo not drawn) [CHLORMEZANONE] | Compound NOT metabolized |

The next lines start with the values.

| Bacterial Biotransformation | SMILES |
| --- | --- |
| Compound NOT metabolized | Cc1ccc(/C(=C\CN2CCCC2)c2ccccn2)cc1 [TRIPROLIDINE] |
| Compound NOT metabolized | CCOC(=O)[C@H](CCc1ccccc1)N[C@@H](C)C(=O)N1[C@H](C(=O)O)C[C@@H]2CCC[C@@H]21 |
| Compound NOT metabolized | CN1C(=O)CC(C)(c2ccccc2)C1=O (stereo not drawn) [METHSUXIMIDE] |

Test: as §1, with “Z-003” for “WLS-370”, “pig” for “human”, “ERS12561803” for “ERS12561793”
Details: 2 µM

| SMILES | Bacterial Biotransformation |
| --- | --- |
| O=c1n(CCCN2CCN(c3cccc(Cl)c3)CC2)nc2ccccn12 [TRAZODONE] | Compound metabolized |
| CN1CCN(C2=Nc3cc(Cl)ccc3Nc3ccccc32)CC1 [CLOZAPINE] | Compound NOT metabolized |
| O=C(O)CCc1nc(-c2ccccc2)c(-c2ccccc2)o1 [OXAPROZIN] | Compound metabolized |
| CN1C(=O)CCS(=O)(=O)C1c1ccc(Cl)cc1 (stereo not drawn) [CHLORMEZANONE] | Compound NOT metabolized |

Continued, values first:

| Bacterial Biotransformation | SMILES |
| --- | --- |
| Compound metabolized | Cc1ccc(/C(=C\CN2CCCC2)c2ccccn2)cc1 [TRIPROLIDINE] |
| Compound metabolized | CCOC(=O)[C@H](CCc1ccccc1)N[C@@H](C)C(=O)N1[C@H](C(=O)O)C[C@@H]2CCC[C@@H]21 |
| Compound NOT metabolized | CN1C(=O)CC(C)(c2ccccc2)C1=O (stereo not drawn) [METHSUXIMIDE] |

Test: as §1, with “WLS-073” for “WLS-370”, “ERS12561749” for “ERS12561793”
Details: 2 µM

| SMILES | Bacterial Biotransformation |
| --- | --- |
| O=c1n(CCCN2CCN(c3cccc(Cl)c3)CC2)nc2ccccn12 [TRAZODONE] | Compound metabolized |
| CN1CCN(C2=Nc3cc(Cl)ccc3Nc3ccccc32)CC1 [CLOZAPINE] | Compound NOT metabolized |
| O=C(O)CCc1nc(-c2ccccc2)c(-c2ccccc2)o1 [OXAPROZIN] | Compound metabolized |
| CN1C(=O)CCS(=O)(=O)C1c1ccc(Cl)cc1 (stereo not drawn) [CHLORMEZANONE] | Compound NOT metabolized |

The next lines start with the values.

| Bacterial Biotransformation | SMILES |
| --- | --- |
| Compound NOT metabolized | Cc1ccc(/C(=C\CN2CCCC2)c2ccccn2)cc1 [TRIPROLIDINE] |
| Compound metabolized | CCOC(=O)[C@H](CCc1ccccc1)N[C@@H](C)C(=O)N1[C@H](C(=O)O)C[C@@H]2CCC[C@@H]21 |
| Compound NOT metabolized | CN1C(=O)CC(C)(c2ccccc2)C1=O (stereo not drawn) [METHSUXIMIDE] |

Details: human gut metagenome, 24 h, 2 µM
Remark: another data set of the same source

| SMILES | Bacterial Biotransformation |
| --- | --- |
| O=c1n(CCCN2CCN(c3cccc(Cl)c3)CC2)nc2ccccn12 [TRAZODONE] | Compound NOT metabolized |
| CN1CCN(C2=Nc3cc(Cl)ccc3Nc3ccccc32)CC1 [CLOZAPINE] | Compound NOT metabolized |
| O=C(O)CCc1nc(-c2ccccc2)c(-c2ccccc2)o1 [OXAPROZIN] | Compound metabolized |
| CN1C(=O)CCS(=O)(=O)C1c1ccc(Cl)cc1 (stereo not drawn) [CHLORMEZANONE] | Compound NOT metabolized |

The remaining lines, values ahead:

| Bacterial Biotransformation | SMILES |
| --- | --- |
| Compound NOT metabolized | Cc1ccc(/C(=C\CN2CCCC2)c2ccccn2)cc1 [TRIPROLIDINE] |
| Compound metabolized | CCOC(=O)[C@H](CCc1ccccc1)N[C@@H](C)C(=O)N1[C@H](C(=O)O)C[C@@H]2CCC[C@@H]21 |
| Compound NOT metabolized | CN1C(=O)CC(C)(c2ccccc2)C1=O (stereo not drawn) [METHSUXIMIDE] |

Test: as §1, with “WLS-077” for “WLS-370”, “ERS12561750” for “ERS12561793”
Details: 2 µM

| SMILES | Bacterial Biotransformation |
| --- | --- |
| O=c1n(CCCN2CCN(c3cccc(Cl)c3)CC2)nc2ccccn12 [TRAZODONE] | Compound NOT metabolized |
| CN1CCN(C2=Nc3cc(Cl)ccc3Nc3ccccc32)CC1 [CLOZAPINE] | Compound NOT metabolized |
| O=C(O)CCc1nc(-c2ccccc2)c(-c2ccccc2)o1 [OXAPROZIN] | Compound metabolized |
| CN1C(=O)CCS(=O)(=O)C1c1ccc(Cl)cc1 (stereo not drawn) [CHLORMEZANONE] | Compound NOT metabolized |

Next, values leading:

| Bacterial Biotransformation | SMILES |
| --- | --- |
| Compound NOT metabolized | Cc1ccc(/C(=C\CN2CCCC2)c2ccccn2)cc1 [TRIPROLIDINE] |
| Compound metabolized | CCOC(=O)[C@H](CCc1ccccc1)N[C@@H](C)C(=O)N1[C@H](C(=O)O)C[C@@H]2CCC[C@@H]21 |
| Compound NOT metabolized | CN1C(=O)CC(C)(c2ccccc2)C1=O (stereo not drawn) [METHSUXIMIDE] |

Test: as §1, with “Z-008” for “WLS-370”, “to” for “to human gut”, “ERS12561808” for “ERS12561793”
Details: 2 µM

| SMILES | Bacterial Biotransformation |
| --- | --- |
| O=c1n(CCCN2CCN(c3cccc(Cl)c3)CC2)nc2ccccn12 [TRAZODONE] | Compound NOT metabolized |
| CN1CCN(C2=Nc3cc(Cl)ccc3Nc3ccccc32)CC1 [CLOZAPINE] | Compound NOT metabolized |
| O=C(O)CCc1nc(-c2ccccc2)c(-c2ccccc2)o1 [OXAPROZIN] | Compound NOT metabolized |
| CN1C(=O)CCS(=O)(=O)C1c1ccc(Cl)cc1 (stereo not drawn) [CHLORMEZANONE] | Compound NOT metabolized |

Second part, the compound after the results:

| Bacterial Biotransformation | SMILES |
| --- | --- |
| Compound NOT metabolized | Cc1ccc(/C(=C\CN2CCCC2)c2ccccn2)cc1 [TRIPROLIDINE] |
| Compound NOT metabolized | CCOC(=O)[C@H](CCc1ccccc1)N[C@@H](C)C(=O)N1[C@H](C(=O)O)C[C@@H]2CCC[C@@H]21 |
| Compound NOT metabolized | CN1C(=O)CC(C)(c2ccccc2)C1=O (stereo not drawn) [METHSUXIMIDE] |

Test: as §1, with “WLS-090” for “WLS-370”, “ERS12561753” for “ERS12561793”
Details: 2 µM

| SMILES | Bacterial Biotransformation |
| --- | --- |
| O=c1n(CCCN2CCN(c3cccc(Cl)c3)CC2)nc2ccccn12 [TRAZODONE] | Compound metabolized |
| CN1CCN(C2=Nc3cc(Cl)ccc3Nc3ccccc32)CC1 [CLOZAPINE] | Compound metabolized |
| O=C(O)CCc1nc(-c2ccccc2)c(-c2ccccc2)o1 [OXAPROZIN] | Compound metabolized |
| CN1C(=O)CCS(=O)(=O)C1c1ccc(Cl)cc1 (stereo not drawn) [CHLORMEZANONE] | Compound metabolized |

Other lines, results leading:

| Bacterial Biotransformation | SMILES |
| --- | --- |
| Compound NOT metabolized | Cc1ccc(/C(=C\CN2CCCC2)c2ccccn2)cc1 [TRIPROLIDINE] |
| Compound metabolized | CCOC(=O)[C@H](CCc1ccccc1)N[C@@H](C)C(=O)N1[C@H](C(=O)O)C[C@@H]2CCC[C@@H]21 |
| Compound NOT metabolized | CN1C(=O)CC(C)(c2ccccc2)C1=O (stereo not drawn) [METHSUXIMIDE] |

Source: ChEMBL document CHEMBL5724914, “Linking interpersonal differences in gut microbiota composition and drug biotransformation activity” (2024)
